Assay results published in patent US9296769B2, “Tenofovir alafenamide hemifumarate” (Gilead Sciences, Inc., priority 2011, dated 2016).
Read-outs that look alike come from different tables or passages of the source.

What was measured:
[1] = for Thermodynamic stability: solvents such as ACN, toluene, MTBE, acetone, THF, 2-methyl THF
[2] = From the text: Chemical stability of the hemifumarate form of tenofovir alafenamide was compared with the monofumarate form. […] Conditions evaluated include temperature, relative humidity (RH), and the open or closed state of the container cap.
[3] = remark: listed apart in the source
Protocol: DVS analysis was conducted using 4.951 mg of tenofovir alafenamide hemifumarate. The material was kept at 25° C. in nitrogen at humidities ranging from 10% to 90% relative humidity; each step was equilibrated for 120 minutes.

[4] = 40° C./75% RH Cap Closed, 0 weeks
[5] = 40° C./75% RH Cap Closed, 1 week
[6] = 40° C./75% RH Cap Closed, 2 weeks
[7] = 40° C./75% RH Cap Closed, 4 weeks
[8] = 40° C./75% RH Cap Closed, 8 weeks
[9] = 40° C./75% RH Cap Open, 0 weeks
[10] = 40° C./75% RH Cap Open, 2 weeks
[11] = 40° C./75% RH Cap Open, 4 weeks
[12] = 40° C./75% RH Cap Open, 8 weeks

| SMILES | % TA Area Normalized [2, 4] | % Total Deg. Products [2, 4] | % TA Area Normalized [2, 5] | % Total Deg. Products [2, 5] | % TA Area Normalized [2, 6] | % Total Deg. Products [2, 6] | % TA Area Normalized [2, 7] | % Total Deg. Products [2, 7] | % TA Area Normalized [2, 8] | % Total Deg. Products [2, 8] | % TA Area Normalized [2, 9] | % Total Deg. Products [2, 9] | % TA Area Normalized ([2]; 40° C./75% RH Cap Open, 1 week) | % Total Deg. Products ([2]; 40° C./75% RH Cap Open, 1 week) | % TA Area Normalized [2, 10] | % Total Deg. Products [2, 10] | % TA Area Normalized [2, 11] | % Total Deg. Products [2, 11] | % TA Area Normalized [2, 12] | % Total Deg. Products [2, 12] | other results |
| --- | --- | --- | --- | --- | --- | --- | --- | --- | --- | --- | --- | --- | --- | --- | --- | --- | --- | --- | --- | --- | --- |
| CC(C)OC(=O)[C@H](C)N[P@](=O)(CO[C@H](C)Cn1cnc2c(N)ncnc21)Oc1ccccc1 [Hemifumarate form, 9-[(R)-2-[[(S)-[[(S)-1-(isopropoxycarbonyl)ethyl]amino]phenoxyphosphinyl]methoxy]propyl]adenine] | 98.4% | 0.05% | 98.4% | 0.14% | 98.5% | 0.14% | 98.4% | 0.25% | 98.0% | 0.49% | 98.4% | 0.05% | 98.5% | 0.15% | 98.5% | 0.14% | 98.4% | 0.26% | 98.1% | 0.50% | Thermodynamic stability ([1]; ethyl acetate, listed as tenofovir alafenamide hemifumarate): thermodynamically stable in most solvents; % TA Area Normalized ([2]; 70° C. Cap Closed, 0 weeks): 98.4%; % Total Deg. Products ([2]; 70° C. Cap Closed, 0 weeks): 0.05%; % TA Area Normalized ([2]; 70° C. Cap Closed, 2 weeks): 98.5%; % Total Deg. Products ([2]; 70° C. Cap Closed, 2 weeks): 0.22%; % TA Area Normalized ([2]; 70° C. Cap Closed, 4 weeks): 98.4%; % Total Deg. Products ([2]; 70° C. Cap Closed, 4 weeks): 0.33%; Hygroscopicity ([3]; 25° C. in nitrogen, 10% to 90% relative humidity): nonhygroscopic; Water absorbed ([3]; 25° C., relative humidity of 90%): 0.65% |
| CC(C)OC(=O)[C@H](C)N[P@](=O)(CO[C@H](C)Cn1cnc2c(N)ncnc21)Oc1ccccc1 [Monofumarate form, 9-[(R)-2-[[(S)-[[(S)-1-(isopropoxycarbonyl)ethyl]amino]phenoxyphosphinyl]methoxy]propyl]adenine] | 97.1% | 0.69% | 97.0% | 0.87% | 96.6% | 1.18% | 96.4% | 1.49% | 95.4% | 2.36% | 97.1% | 0.69% | 96.9% | 0.90% | 96.6% | 1.10% | 96.2% | 1.67% | 95.0% | 2.74% | Form conversion when suspended in solvent ([1]; ACN, ethyl acetate, MTBE and acetone): partially converts to the hemifumarate form; Form conversion when suspended in solvent ([1]; THF and 2-methyl THF): fully converts to the hemifumarate form; Thermodynamic stability ([1]; ethyl acetate): not thermodynamically stable; % TA Area Normalized ([2]; 70° C. Cap Closed, 0 weeks): 97.1%; % Total Deg. Products ([2]; 70° C. Cap Closed, 0 weeks): 0.69%; % TA Area Normalized ([2]; 70° C. Cap Closed, 2 weeks): 96.2%; % Total Deg. Products ([2]; 70° C. Cap Closed, 2 weeks): 1.83%; % TA Area Normalized ([2]; 70° C. Cap Closed, 4 weeks): 93.3%; % Total Deg. Products ([2]; 70° C. Cap Closed, 4 weeks): 4.78% |
